Reference: patent US20190136321A1, “USE OF TRANSLATIONAL PROFILING TO IDENTIFY TARGET MOLECULES FOR THERAPEUTIC TREATMENT” (The Regents of The University of California, priority 2013, published 2019)

Columns and labels:
Type in all cases: cell-based, human
PC3 cells = test: Ribosome profiling and RNA-seq of PC3 cells (translational efficiency, mRNA abundance);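 note: mRNA is RNA-seq average read density per codon over the coding sequence, translational efficiency is ribosome footprint over RNA-seq density, scaled so the median gene equals 1.0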
Experimental: Given the critical role for mTOR in prostate cancer, PC3 human prostate cancer cells, in which mTOR is constitutively hyperactivated, were used to delineate translationally controlled gene expression networks upon complete or partial mTOR inhibition. Ribosome profiling was optimized to assess quantitatively ribosome occupancy genome-wide in cancer cells.
Cells were subsequently treated with cycloheximide (100 μg ml^−1) and detergent lysis was performed in the dish. The lysate was treated with DNase and clarified, and a sample was taken for RNA-seq analysis. Lysates were subjected to ribosome footprinting by nuclease treatment. Ribosome-protected fragments were purified, and deep sequencing libraries were generated from these fragments, as well as from poly(A) mRNA purified from non-nuclease-treated lysates.
Ribosome footprint and RNA-seq sequencing reads were aligned against a library of transcripts from the UCSC Known Genes database GRCh37/hg19. The first 25 nucleotides of each read were aligned using Bowtie and this initial alignment was then extended to encompass the full fragment-derived portion of the sequencing read while excluding the linker sequence. Read density profiles were then constructed for the canonical transcript of each gene, using only reads with 0 or 1 total mismatches between the read sequence and the reference sequence, comprised of the transcript fragment followed by the linker sequence. Footprint reads were assigned to an A site nucleotide at position +15 to +17 of the alignment, based on the total fragment length; mRNA reads were assigned to the first nucleotide of the alignment. The average read density per codon was then computed for the coding sequence of each transcript, excluding the first 15 and last 5 codons, which can display atypical ribosome accumulation.
Average read density was used as a measure of mRNA abundance (RNA-seq reads) and of protein synthesis (ribosome profiling reads). For most analyses, genes were filtered to require at least 256 reads in the relevant RNA-seq samples. Translational efficiency was computed as the ratio of ribosome footprint read density to RNA-seq read density, scaled to normalize the translational efficiency of the median gene to 1.0 after excluding regulated genes (log2 fold-change ±1.5 after normalizing for the all-gene median). Changes in protein synthesis, mRNA abundance and translational efficiency were similarly computed as the ratio of read densities between different samples, normalized to give the median gene a ratio of 1.0. This normalization corrects for differences in the absolute number of sequencing reads obtained for different libraries.

4EBP1, p70S6K1/2 and AKT = test: Western blot of downstream mTOR effectors in PC3 cells; conditions: 2.5 μM PP242, 3 hrs
Experimental: Cells were washed with PBS and lysed in 1× cell lysis buffer (Cell Signaling) for 15 min at 4° C. Lysates were sonicated briefly, clarified by centrifugation for 15 min at 14, 000 rpm, and supernatants were then collected. Protein concentration in the soluble fraction was determined by BCA protein assay (Thermo Scientific). A 4-20% Bis-Tris gradient gel (Invitrogen) was used to resolve 20 μg of protein and transferred to nitrocellulose membrane. The resulting membranes were blocked for 1 hr at room temperature with Odyssey blocking solution (LI-COR) and then incubated with primary antibodies at 4° C. overnight. The following day, the blots were washed 3 times, 10 min each in TBST, and incubated with IR-conjugated goat anti-rabbit IgG secondary antibody (IRDye 800 CW at 1:20,000; LI-COR) for 1 hour at room temperature. The blots were then washed, scanned, and specific proteins were detected using the LI-COR Odyssey infrared imager. […] Actin was used as a loading amount control.

SW620 cells = test: Western blot of phosphorylation of protein translation components in SW620 cells; conditions: PP242 10 μM
Experimental: SW620 cells (ATCC, passage 12) were seeded at about 75% confluence 24 hrs prior to drug treatment. […] About 6×10^6 cells/10 cm plate and about 1×10^6 cells/well of a 6-well plate were harvested for ribosome profiling and Western blot analysis, respectively, following drug treatment.
Cells were washed with PBS and lysed in 1× cell lysis buffer (Cell Signaling) for 15 min at 4° C. Lysates were sonicated briefly, clarified by centrifugation for 15 min at 14, 000 rpm, and supernatants were then collected. Protein concentration in the soluble fraction was determined by BCA protein assay (Thermo Scientific). A 4-20% Bis-Tris gradient gel (Invitrogen) was used to resolve 20 μg of protein and transferred to nitrocellulose membrane. The resulting membranes were blocked for 1 hr at room temperature with Odyssey blocking solution (LI-COR) and then incubated with primary antibodies at 4° C. overnight. The following day, the blots were washed 3 times, 10 min each in TBST, and incubated with IR-conjugated goat anti-rabbit IgG secondary antibody (IRDye 800 CW at 1:20,000; LI-COR) for 1 hour at room temperature. The blots were then washed, scanned, and specific proteins were detected using the LI-COR Odyssey infrared imager. The following antibodies from Cell Signaling were used at 1:1000 dilution: anti-phospho-eIF4E(Ser209)(#9741), anti-phospho-rpS6(Ser235/236)(#4858), anti-phospho-ERK1/2(Thr202/Tyr204)(#4370), anti-phospho-p70S6K(Thr421/Ser424)(#9204), anti-phospho-p90RSK(Thr359/Ser363)(#9344), anti-phospho-4EBP(Ser65), anti-phospho-pAKT(Ser473), anti-phospho-eIF4E(Ser209), and anti-β-actin (#4970). Actin was used as a loading amount control.

SMILES: CC(C)n1nc(-c2cc3cc(O)ccc3[nH]2)c2c(N)ncnc21 [PP242]
- TrlEff, ACD (PC3 cells; PP242 2.5 μM, 3-hour treatment): −1.02
- TrlEff, C17orf28 (PC3 cells; PP242 2.5 μM, 3-hour treatment): −0.20
- TrlEff, CCNA1 (PC3 cells; PP242 2.5 μM, 3-hour treatment): 0.66
- TrlEff, DDX51 (PC3 cells; PP242 2.5 μM, 3-hour treatment): −0.51
- TrlEff, DGCR2 (PC3 cells; PP242 2.5 μM, 3-hour treatment): 0.02
- TrlEff, EEF1A1 (PC3 cells; PP242 2.5 μM, 3-hour treatment): −3.53
- TrlEff, GTPBP3 (PC3 cells; PP242 2.5 μM, 3-hour treatment): −0.83
- TrlEff, MAPK6 (PC3 cells; PP242 2.5 μM, 3-hour treatment): −0.29
- TrlEff, MAPKAPK2 (PC3 cells; PP242 2.5 μM, 3-hour treatment): 0.92
- TrlEff, NFATC21P (PC3 cells; PP242 2.5 μM, 3-hour treatment): 0.35
- TrlEff, NR2F1 (PC3 cells; PP242 2.5 μM, 3-hour treatment): −0.09
- TrlEff, PRKD3 (PC3 cells; PP242 2.5 μM, 3-hour treatment): 0.68
- TrlEff, RBPJ (PC3 cells; PP242 2.5 μM, 3-hour treatment): −0.03
- TrlEff, RPL28 (PC3 cells; PP242 2.5 μM, 3-hour treatment): −3.48
- TrlEff, RPL39 (PC3 cells; PP242 2.5 μM, 3-hour treatment): −2.53
- TrlEff, RPS20 (PC3 cells; PP242 2.5 μM, 3-hour treatment): −2.78
- TrlEff, RPS27 (PC3 cells; PP242 2.5 μM, 3-hour treatment): −3.35
- TrlEff, SDCCAG10 (PC3 cells; PP242 2.5 μM, 3-hour treatment): 0.23
- TrlEff, UBTD2 (PC3 cells; PP242 2.5 μM, 3-hour treatment): 0.27
- TrlEff, UCHL5 (PC3 cells; PP242 2.5 μM, 3-hour treatment): 0.40
- TrlEff, VHL (PC3 cells; PP242 2.5 μM, 3-hour treatment): 0.52
- mRNA, ACD (PC3 cells; PP242 2.5 μM, 3-hour treatment): 0.20
- mRNA, ARID5B (PC3 cells; PP242 2.5 μM, 3-hour treatment): 1.93 log^2 fold change
- mRNA, BCL6 (PC3 cells; PP242 2.5 μM, 3-hour treatment): 1.59 log^2 fold change
- mRNA, BRIX1 (PC3 cells; PP242 2.5 μM, 3-hour treatment): −1.51 log^2 fold change
- mRNA, C17orf28 (PC3 cells; PP242 2.5 μM, 3-hour treatment): 0.21
- mRNA, CCNA1 (PC3 cells; PP242 2.5 μM, 3-hour treatment): −0.33
- mRNA, CTGF (PC3 cells; PP242 2.5 μM, 3-hour treatment): 1.80 log^2 fold change
- mRNA, CYR61 (PC3 cells; PP242 2.5 μM, 3-hour treatment): 1.47 log^2 fold change
- mRNA, DDX51 (PC3 cells; PP242 2.5 μM, 3-hour treatment): 0.17
- mRNA, DGCR2 (PC3 cells; PP242 2.5 μM, 3-hour treatment): 0.05
- mRNA, EEF1A1 (PC3 cells; PP242 2.5 μM, 3-hour treatment): 0.29
- mRNA, FGFBP1 (PC3 cells; PP242 2.5 μM, 3-hour treatment): −1.75 log^2 fold change
- mRNA, FOXA1 (PC3 cells; PP242 2.5 μM, 3-hour treatment): 1.45 log^2 fold change
- mRNA, GDF15 (PC3 cells; PP242 2.5 μM, 3-hour treatment): 3.02 log^2 fold change
- mRNA, GTPBP3 (PC3 cells; PP242 2.5 μM, 3-hour treatment): 0.15
- mRNA, HBP1 (PC3 cells; PP242 2.5 μM, 3-hour treatment): 1.88 log^2 fold change
- mRNA, KLF6 (PC3 cells; PP242 2.5 μM, 3-hour treatment): 1.75 log^2 fold change
- mRNA, MAPK6 (PC3 cells; PP242 2.5 μM, 3-hour treatment): 0.10
- mRNA, MAPKAPK2 (PC3 cells; PP242 2.5 μM, 3-hour treatment): −0.22
- mRNA, MT2A (PC3 cells; PP242 2.5 μM, 3-hour treatment): 1.47 log^2 fold change
- mRNA, NFATC21P (PC3 cells; PP242 2.5 μM, 3-hour treatment): 0.08
- mRNA, NR2F1 (PC3 cells; PP242 2.5 μM, 3-hour treatment): 0.87
- mRNA, PLAU (PC3 cells; PP242 2.5 μM, 3-hour treatment): 2.04 log^2 fold change
- mRNA, PRKD3 (PC3 cells; PP242 2.5 μM, 3-hour treatment): −0.46
- mRNA, RBPJ (PC3 cells; PP242 2.5 μM, 3-hour treatment): 0.17
- mRNA, RND3 (PC3 cells; PP242 2.5 μM, 3-hour treatment): 1.78 log^2 fold change
- mRNA, RPL28 (PC3 cells; PP242 2.5 μM, 3-hour treatment): 0.55
- mRNA, RPL39 (PC3 cells; PP242 2.5 μM, 3-hour treatment): −0.42
- mRNA, RPS20 (PC3 cells; PP242 2.5 μM, 3-hour treatment): −0.10
- mRNA, RPS27 (PC3 cells; PP242 2.5 μM, 3-hour treatment): 0.06
- mRNA, SDCCAG10 (PC3 cells; PP242 2.5 μM, 3-hour treatment): −0.37
- mRNA, SOX4 (PC3 cells; PP242 2.5 μM, 3-hour treatment): 1.51 log^2 fold change
- mRNA, UBTD2 (PC3 cells; PP242 2.5 μM, 3-hour treatment): 0.25
- mRNA, UCHL5 (PC3 cells; PP242 2.5 μM, 3-hour treatment): −0.51
- mRNA, VHL (PC3 cells; PP242 2.5 μM, 3-hour treatment): 0.43
- TrlEff (PC3 cells; gene ACTG1): −1.40
- mRNA (PC3 cells; gene ACTG1): 0.28
- mRNA (PC3 cells; gene AGRN): 0.50
- mRNA (PC3 cells; gene ALKBH7): 0.51
- mRNA (PC3 cells; gene AP2A1): 0.42
- mRNA (PC3 cells; gene ARD1A): 0.03
- mRNA (PC3 cells; gene ATP5G2): 0.17
- mRNA (PC3 cells; gene C21orf66): −0.31
- mRNA (PC3 cells; gene CCNI): 0.24
- mRNA (PC3 cells; gene CD44): 0.43
- mRNA (PC3 cells; gene CIRBP): 0.54
- mRNA (PC3 cells; gene CLPTM1): 0.41
- mRNA (PC3 cells; gene COL6A2): 0.57
- TrlEff (PC3 cells; gene CRTAP): −2.50
- mRNA (PC3 cells; gene CRTAP): 0.33
- mRNA (PC3 cells; gene ECSIT): 0.26
- mRNA (PC3 cells; gene EEF1A2): 0.40
- TrlEff (PC3 cells; gene EEF1B2): −1.70
- mRNA (PC3 cells; gene EEF1D): 0.35
- mRNA (PC3 cells; gene EEF1G): 0.15
- TrlEff (PC3 cells; gene EEF2): −3.60
- mRNA (PC3 cells; gene EIF3H): 0.09
- mRNA (PC3 cells; gene EIF3L): 0.21
- mRNA (PC3 cells; gene EIF4B): 0.61
- TrlEff (PC3 cells; gene EVPL): −0.79
- mRNA (PC3 cells; gene EVPL): 0.38
- mRNA (PC3 cells; gene FAM83H): 0.33
- mRNA (PC3 cells; gene FAM128B): 0.43
- mRNA (PC3 cells; gene FASN): 0.30
- TrlEff (PC3 cells; gene GAPDH): −1.90
- mRNA (PC3 cells; gene GLTSCR2): 0.70
- mRNA (PC3 cells; gene GNB2L1): 0.27
- mRNA (PC3 cells; gene HNRNPA1): 0.27
- mRNA (PC3 cells; gene HSPA8): −0.40
- mRNA (PC3 cells; gene IMPDH2): 0.21
- TrlEff (PC3 cells; gene LAMA5): −0.94
- mRNA (PC3 cells; gene LAMA5): 0.40
- mRNA (PC3 cells; gene LMF2): 0.62
- mRNA (PC3 cells; gene MTA1): 0.21
- TrlEff (PC3 cells; gene NCLN): −0.76
- mRNA (PC3 cells; gene NCLN): 0.29
- mRNA (PC3 cells; gene PABPC1): 0.16
- mRNA (PC3 cells; gene PABPC4): 0.40
- mRNA (PC3 cells; gene PACS1): 0.45
- mRNA (PC3 cells; gene PFDN5): 0.04
- mRNA (PC3 cells; gene PGLS): 0.21
- mRNA (PC3 cells; gene PGM1): 0.23
- TrlEff (PC3 cells; gene PNKP): −0.79
- mRNA (PC3 cells; gene PNKP): 0.33
- TrlEff (PC3 cells; gene PTGES2): −0.65
- mRNA (PC3 cells; gene PTGES2): 0.17
- mRNA (PC3 cells; gene RABGGTB): 0.20
- mRNA (PC3 cells; gene RPL3): 0.22
- TrlEff (PC3 cells; gene RPL4): −1.50
- mRNA (PC3 cells; gene RPL4): 0.10
- mRNA (PC3 cells; gene RPL7): 0.01
- TrlEff (PC3 cells; gene RPL7A): −2.30
- mRNA (PC3 cells; gene RPL7A): 0.15
- mRNA (PC3 cells; gene RPL9): −0.08
- mRNA (PC3 cells; gene RPL10): 0.25
- mRNA (PC3 cells; gene RPL10A): 0.14
- mRNA (PC3 cells; gene RPL11): 0.14
- mRNA (PC3 cells; gene RPL12): 0.12
- mRNA (PC3 cells; gene RPL13): 0.26
- TrlEff (PC3 cells; gene RPL13A): −3.10
- mRNA (PC3 cells; gene RPL13A): 0.30
- TrlEff (PC3 cells; gene RPL15): −1.20
- mRNA (PC3 cells; gene RPL15): 0.19
- TrlEff (PC3 cells; gene RPL17): −1.80
- mRNA (PC3 cells; gene RPL18A): 0.23
- mRNA (PC3 cells; gene RPL19): 0.11
- mRNA (PC3 cells; gene RPL21): −0.04
- mRNA (PC3 cells; gene RPL22): 0.00
- TrlEff (PC3 cells; gene RPL22L1): −1.90
- mRNA (PC3 cells; gene RPL24): 0.00
- TrlEff (PC3 cells; gene RPL26): −2.00
- mRNA (PC3 cells; gene RPL26): 0.02
- mRNA (PC3 cells; gene RPL27): −0.13
- mRNA (PC3 cells; gene RPL27A): 0.07
- mRNA (PC3 cells; gene RPL28): 0.22
- TrlEff (PC3 cells; gene RPL31): −2.10
- mRNA (PC3 cells; gene RPL31): 0.05
- mRNA (PC3 cells; gene RPL32): 0.11
- mRNA (PC3 cells; gene RPL34): 0.04
- mRNA (PC3 cells; gene RPL36A): −0.01
- mRNA (PC3 cells; gene RPL37A): 0.01
- mRNA (PC3 cells; gene RPL39): −0.15
- mRNA (PC3 cells; gene RPL41): −0.01
- mRNA (PC3 cells; gene RPLP0): 0.12
- mRNA (PC3 cells; gene RPLP1): 0.12
- TrlEff (PC3 cells; gene RPLP2): −2.10
- mRNA (PC3 cells; gene RPLP2): 0.14
- mRNA (PC3 cells; gene RPS2): 0.20
- mRNA (PC3 cells; gene RPS3): 0.24
- mRNA (PC3 cells; gene RPS3A): −0.06
- mRNA (PC3 cells; gene RPS4X): 0.12
- mRNA (PC3 cells; gene RPS5): 0.23
- mRNA (PC3 cells; gene RPS6): −0.02
- TrlEff (PC3 cells; gene RPS7): -1151
- mRNA (PC3 cells; gene RPS7): −0.04
- mRNA (PC3 cells; gene RPS9): 0.34
- TrlEff (PC3 cells; gene RPS12): −3.00
- mRNA (PC3 cells; gene RPS12): 0.04
- mRNA (PC3 cells; gene RPS13): −0.08
- TrlEff (PC3 cells; gene RPS14): −1.50
- mRNA (PC3 cells; gene RPS14): 0.16
- mRNA (PC3 cells; gene RPS15): 0.21
- mRNA (PC3 cells; gene RPS15A): 0.07
- mRNA (PC3 cells; gene RPS19): 0.23
- mRNA (PC3 cells; gene RPS20): −0.01
- mRNA (PC3 cells; gene RPS21): 0.09
- mRNA (PC3 cells; gene RPS25): −0.04
- mRNA (PC3 cells; gene RPS27): 0.07
- mRNA (PC3 cells; gene RPS27A): −0.04
- mRNA (PC3 cells; gene RPS28): 0.28
- mRNA (PC3 cells; gene RPS29): 0.11
- mRNA (PC3 cells; gene SLC19A1): 0.10
- TrlEff (PC3 cells; gene SLC25A5): −1.80
- mRNA (PC3 cells; gene TKT): 0.33
- mRNA (PC3 cells; gene TSC2): 0.21
- mRNA (PC3 cells; gene UBA52): 0.18
- mRNA (PC3 cells; gene VIM): 0.67
- TrlEff (PC3 cells; gene YB1): −2.30
- mRNA (PC3 cells; gene YB1): 0.24
- phosphorylation of S6K, S6 and 4EBP1 (4EBP1, p70S6K1/2 and AKT): substantially inhibited
- phosphorylation of 4EBP (SW620 cells): some phosphorylation of 4EBP was observed
